Data: patent publication US20220220145A1, “CYCLIC PHOSPHATE COMPOUNDS” (priority 2019, published 2022)

Experiment: Tissue distribution following oral administration of reference compounds and the disclosed compounds
Assay type: in vivo
Conditions: rats; for levels of nucleoside phosphates in the liver compared to the reference compounds: oral administration, statement in words summarising Table 1
Description: The liver specificity of the disclosed compounds is compared relative to a corresponding active compound in liver and other organs that could be targets of toxicity.
Reference compounds and the cyclic phosphate compounds were administered at 5-50 mg/kg to fasted rats by oral gavage. Plasma concentrations of the metabolites, and parent compounds in circulation and in the hepatic portal vein were determined by HPLC-UV, and the liver, small intestine, and other organ concentrations were measured by LC-MS using standard chromatography methods.

[2H]C([2H])([2H])c1cn([C@H]2C[C@H](O)[C@@H](CO)O2)c(=O)[nH]c1=O [Thymidine-d3]
NUCHPV: ratio of new compound vs corresponding reference compound in nucleoside level in hepatic portal vein (HPV) (one hour after oral administration at 5 mg/kg nucleoside equivalent dose, hepatic portal vein): 1.0
NMPliver: ratio of new compound vs corresponding reference compound in nucleoside monophosphate level in the liver (one hour after oral administration at 5 mg/kg nucleoside equivalent dose, liver): 1.0
NUCblood: ratio of new compound vs corresponding reference compound in nucleoside level in systemic blood (one hour after oral administration at 5 mg/kg nucleoside equivalent dose, systemic blood): 1.0

[2H]C([2H])([2H])c1cn([C@H]2C[C@@H]3OP(=O)(OCc4ccccc4C(=O)OCCC)OC[C@H]3O2)c(=O)[nH]c1=O (stereo partly drawn) [Compound 106, Propyl 2-((((4aR,6R,7aS)-6-(5-(methyl-d3)-2,4-dioxo-3,4-dihydropyrimidin-1(2H)-yl)-2-oxidotetrahydro-4H-furo[3,2-d][1,3,2]dioxaphosphinin-2-yl)oxy)methyl)benzoate]
levels of nucleoside phosphates in the liver compared to the reference compounds: substantially higher levels

CC(C)OC(=O)c1ccccc1COP1(=O)OC[C@H]2O[C@@H](n3ccc(=O)[nH]c3=O)[C@](C)(F)[C@@H]2O1 (stereo partly drawn) [Compound 107, Isopropyl 2-((((4aR,6R,7R,7aR)-6-(2,4-dioxo-3,4-dihydropyrimidin-1(2H)-yl)-7-fluoro-7-methyl-2-oxidotetrahydro-4H-furo[3,2-d][1,3,2]dioxaphosphinin-2-yl)oxy)methyl)benzoate]
levels of nucleoside phosphates in the liver compared to the reference compounds: substantially higher levels
